Results reported in patent US20240228491A1, “METHIONINE ADENOSYLTRANSFERASE INHIBITOR, PREPARATION METHOD THEREFOR AND APPLICATION THEREOF” (SCINNOHUB PHARMACEUTICAL CO., LTD., priority 2021, published 2024).

How the values were obtained:
[1] = target: MAT2a (Homo sapiens (Human), UniProt P31153); assay: MAT2a enzymatic activity test (colorimetric assay); type: biochemical; details: OD620, 150 min reaction, read-out: IC50 against MAT2a
Protocol: The Colorimetric assay method was used to detect the IC50 value of the tested compounds on MAT2a.
The specific steps were as follows: The compounds having the test starling concentration of 1 μM or 10 μM were diluted into 10 concentration points in a 3-fold gradient. 250 nL of the solutions of the compounds to be tested with 10 different concentrations were taken and added into a 384 well plate for later use. 20 μg/mL of MAT2a enzyme solution was prepared with Assay buffer (50 mM Tris, 50 mM KCl, 10 mM MgCl2, 0.05% polyoxyethylene lauryl ether, pH 8.0). 15 μL of the MAT2a enzyme solution at 20 μg/mL was add into the wells of the compounds to be tested at different concentrations; and 15 μL of Assay buffer was added into the negative control well. An incubation was carried out for 15 minutes after shaking for mixing well. A mixed substrate solution (comprising 400 μM ATP and 600 μM L-Methionine) was prepared with Assay buffer. 10 μL of the mixed substrate solution was added to the positive control well, the compound to be tested well, and the negative control well, respectively, and the reaction began, for a reaction time of 150 min. Then, 50 μL of the reaction stop solution (BIOMOL Green™ Reagent Enzo lifesciences, Cargo No. BML-AK111-1000) was added to stop the reaction, followed by being centrifuged at 1000 rpm for 60 s and then being incubated for 15 min. OD620 was read and data were processed.
By using the log value of the concentration as the X-axis and the inhibition % as the Y-axis, the IC50 value of each compound against enzyme activity was obtained through employing the log(inhibitor) vs. response-Variable slope fitting dose-effect curve of the analysis software GraphPad Prism 5.

[2] = tested on: HCT116 MTAP-/- cells; assay: Activity test of HCT116 MTAP gene homozygous deletion cells (CellTiter-Glo); type: cell-based; details: Homo sapiens, HCT-116, 120 h incubation, read-out: HCT116 MTAP-/- Cell IC50
Protocol: On day 1, cell seeding: after digestion of the cells with trypsin, the cells were resuspended to the desired density with the complete medium (RPMI-1640 supplemented with 10% FBS; the brand of FBS is EXCELL, Cat. No. FND500; the brand of RPMI-1640 is ATCC, Cat. No. 30-2001), mixed evenly, and added into the 96-well plate at 100 μL/well with a cell density of 1000-3000 cells per well. The plate was put back to the incubator for the adherent growth of cells. On day 2, the addition of the compounds to be tested: before the addition of the compounds, the cells were starved with serum-free medium for 4 h, then the complete medium containing the corresponding concentration of compounds was added thereto, and the cells were incubated at 37° C., 5% CO2 for 120 h. On day 7, the cell culture plates were taken out from incubator and equilibrated to room temperature. 50 μL of CellTiter-Glo (Promega Company, Cat. No. G7571) reagent was added per well, and the cells were fully lysed by shaking at room temperature for 2 min, and then incubated for another 60 min to detect the fluorescence intensity. Calculation formula:
(§1) % Inhibition=100−(signal of the well with the compound to be tested−signal of the well with only medium and free of cells)/(signal of the well with cells but without addition of the compound−signal of the well with only medium and free of cells)×100.
The fitting dose-effect curve of the analysis software GraphPad Prism 5 was used to give IC50 values of the individual compounds against cellular activity.

[3] = tested on: KP-4 cells; assay: Inhibitory activity test of KP-4 cells; type: cell-based; details: Homo sapiens, 144 h incubation, read-out: KP-4 cell inhibitory activity IC50
Protocol: On day 1, cell seeding: after digestion of the cells with trypsin, the cells were resuspended to 1*10^4/mL with RPMI1640 complete medium (HyClone Company, Cat. No. SH30809.01) supplemented with 10% FBS (Gibco, 10099141C), mixed evenly, and added into the 96-well plate at 100 μL/well. The plate was put back to the incubator for the adherent growth of cells. On day 2, the addition of the compounds to be tested: 100 μL of the complete medium containing the compounds (the concentration of the compound in the medium was formulated as follows: 3-fold gradient dilution from 60 μM, 10 concentration gradients in total) was added, incubated for 144 hours at 37° C., 5% CO2. On day 8, the cell culture plates were taken out from incubator and equilibrated to room temperature, excess medium was pipetted from the wells so that 50 μL of supernatant was retained, and 50 μL of CellCounting-Lite 2.0 (Nanjing Vazyme Biotech Co., Ltd., Cat. No. DD1101) reagent was added per well, and the cells were fully lysed by shaking at room temperature for 10 min, and incubated for 5 min to detect the fluorescence intensity.
as §1
The log value of concentration was used as the X-axis and % Inhibition was used as the Y-axis, so as to fit the dose-effect curve and calculate the IC50 value using nonlinear regression (dose response−variable slope) in the analysis software GraphPad Prism 8.

Sequence of MAT2a (P31153 whole entry): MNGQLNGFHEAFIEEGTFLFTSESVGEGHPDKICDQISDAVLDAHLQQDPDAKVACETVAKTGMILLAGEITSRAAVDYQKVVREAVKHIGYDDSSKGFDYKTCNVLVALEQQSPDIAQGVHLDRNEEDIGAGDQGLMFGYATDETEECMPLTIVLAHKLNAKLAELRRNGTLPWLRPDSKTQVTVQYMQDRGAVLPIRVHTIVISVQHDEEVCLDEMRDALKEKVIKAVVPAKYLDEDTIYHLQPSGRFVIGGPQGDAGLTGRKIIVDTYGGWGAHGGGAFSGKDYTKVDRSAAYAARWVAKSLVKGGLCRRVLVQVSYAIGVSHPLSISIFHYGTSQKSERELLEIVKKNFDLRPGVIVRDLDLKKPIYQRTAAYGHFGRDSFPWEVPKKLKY

Structure (SMILES)	IC50 [1]	IC50 [2]	IC50 [3]
Nc1c(-n2cccc2)c(=O)n(-c2ccc(Cl)cc2)c2nc(C(F)(F)F)ccc12 [Example 3, 4-amino-1-(4-chlorophenyl)-3-(1H-pyrrol-1-yl)-7-(trifluoromethyl)-1,8-naphthyridin-2(1H)-one]	12.7 nM	12.7 nM	170 nM
CNc1c(-c2nnco2)c(=O)n(-c2ccccc2)c2nc(C(F)(F)F)ccc12 [Example 6, 4-(methylamino)-3-(1,3,4-oxadiazol-2-yl)-1-phenyl-7-(trifluoromethyl)-1,8-naphthyridin-2(1H)-one]	40.5 nM	494 nM	–
CNc1c(-c2ncco2)c(=O)n(-c2ccccc2)c2nc(C(F)(F)F)ccc12 [Example 7, 4-(methylamino)-3-(oxazol-2-yl)-1-phenyl-7-(trifluoromethyl)-1,8-naphthyridin-2(1H)-one]	37.9 nM	800 nM	–
CNc1c(-c2ccccc2)c(=O)n(-c2ccccc2)c2nc(C(F)(F)F)ccc12 [Example 13]	32 nM	638 nM	–
CNc1c(-n2cccn2)c(=O)n(-c2ccccc2)c2nc(C(F)(F)F)ccc12 [Example 15, 4-(methylamino)-1-phenyl-3-(1H-pyrazol-1-yl)-7-(trifluoromethyl)-1,8-naphthyridin-2(1H)-one]	23.2 nM	345 nM	9730 nM
Nc1c(-c2ccc3c(c2)OCO3)c(=O)n(-c2ccc(Cl)cc2)c2nc(C(F)(F)F)ccc12 [Example 19]	12.3 nM	13.1 nM	890 nM
Nc1c(-c2ccc3ncoc3c2)c(=O)n(-c2ccc(Cl)cc2)c2nc(C(F)(F)F)ccc12 [Example 22]	15 nM	20.9 nM	730 nM
Cn1cnc2ccc(-c3c(N)c4ccc(C(F)(F)F)nc4n(-c4ccc(Cl)cc4)c3=O)cc21 [Example 23]	16.5 nM	23 nM	610 nM
COc1ccc(-c2c(N)c3ccc(C(F)(F)F)nc3n(-c3ccc(Cl)cc3)c2=O)cc1 [Example 24]	15.6 nM	11.5 nM	100 nM
CNc1c(-c2ccc(F)cc2)c(=O)n(-c2ccccc2)c2nc(C(F)(F)F)ccc12 [Example 26]	17.8 nM	617 nM	10200 nM
CNc1c(-c2ccc3ncn(C)c3c2)c(=O)n(-c2ccccc2)c2nc(C(F)(F)F)ccc12 [Example 27]	17.5 nM	231 nM	1620 nM
CNc1c(-c2cncs2)c(=O)n(-c2ccccc2)c2nc(C(F)(F)F)ccc12 [Example 29]	25.2 nM	427 nM	–
Nc1c(-n2cccn2)c(=O)n(-c2ccc(Cl)cc2)c2nc(C(F)(F)F)ccc12 [Example 38]	18.1 nM	–	910 nM
Nc1c(-c2ccncn2)c(=O)n(-c2ccc(Cl)cc2)c2nc(C(F)(F)F)ccc12 [Example 39]	19.8 nM	–	410 nM
Nc1c(-n2cncn2)c(=O)n(-c2ccc(Cl)cc2)c2nc(C(F)(F)F)ccc12 [Example 41]	18.4 nM	–	3080 nM
Nc1ccc(-c2c(N)c3ccc(C(F)(F)F)nc3n(-c3ccc(Cl)cc3)c2=O)cc1 [Example 43]	22 nM	–	480 nM
CS(=O)(=O)CCn1ncc2cc(-c3c(N)c4ccc(C(F)(F)F)nc4n(-c4ccc(Cl)cc4)c3=O)ccc21 [Example 52]	16.2 nM	–	760 nM
Nc1c(-c2ccc3c(c2)NC(=O)CO3)c(=O)n(-c2ccc(Cl)cc2)c2nc(C(F)(F)F)ccc12 [Example 54]	16.2 nM	–	960 nM
Cn1nnc2ccc(-c3c(N)c4ccc(C(F)(F)F)nc4n(-c4ccc(Cl)cc4)c3=O)cc21 [Example 63]	17.8 nM	21.5 nM	–
Cn1nc2ccc(-c3c(N)c4ccc(C(F)(F)F)nc4n(-c4ccc(Cl)cc4)c3=O)cc2n1 [Example 64]	15.4 nM	10.7 nM	–
CN(C)CCn1cc2cc(-c3c(N)c4ccc(C(F)(F)F)nc4n(-c4ccc(Cl)cc4)c3=O)ccc2n1 [Example 72]	16.5 nM	–	–

Structure (SMILES)	IC50 [1]	IC50 [2]	IC50 [3]
CN(C)CCn1ncc2cc(-c3c(N)c4ccc(C(F)(F)F)nc4n(-c4ccc(Cl)cc4)c3=O)ccc21 [Example 73]	18.8 nM	–	–
Cn1cc(-c2c(N)c3ccc(C(F)(F)F)nc3n(-c3ccc(Cl)c(F)c3)c2=O)ccc1=O [Example 74]	16.4 nM	–	–
Cc1cc(-c2c(N)c3ccc(C(F)(F)F)nc3n(-c3ccc(Cl)cc3)c2=O)ccn1 [Example 75]	13.8 nM	–	–
N#Cc1cc(-c2c(N)c3ccc(C(F)(F)F)nc3n(-c3ccc(Cl)cc3)c2=O)ccn1 [Example 76]	16.3 nM	–	–
Nc1c(-c2ccnc(C(F)(F)F)c2)c(=O)n(-c2ccc(Cl)cc2)c2nc(C(F)(F)F)ccc12 [Example 77]	13.9 nM	–	–
Cn1cc(-c2c(N)c3ccc(C(F)(F)F)nc3n(-c3ccc(Cl)cc3F)c2=O)ccc1=O [Example 78]	14 nM	–	–
COc1ccc(-c2c(N)c3ccc(C(F)(F)F)nc3n(-c3ccc(Br)cc3)c2=O)cc1 [Example 79, 4-amino-1-(4-bromophenyl)-3-(4-methoxyphenyl)-7-(trifluoromethyl)-1,8-naphthyridin-2(1H)-one]	18 nM	10.9 nM	–
Cn1cnc2ccc(-c3c(N)c4ccc(C(F)(F)F)nc4n(-c4ccc(Br)cc4)c3=O)cc21 [Example 80]	15.5 nM	13.1 nM	–
Cc1ccc(-n2c(=O)c(-n3cccn3)c(N)c3ccc(C(F)(F)F)nc32)cc1 [Example 81]	17 nM	–	–
Cc1ccc(-n2c(=O)c(-n3cncn3)c(N)c3ccc(C(F)(F)F)nc32)cc1 [Example 82]	16 nM	–	–
Nc1c(-c2ccc3nccnc3c2)c(=O)n(-c2ccc(Br)cc2)c2nc(C(F)(F)F)ccc12 [Example 83]	17.2 nM	9.12 nM	–
Nc1c(-c2ccc(F)cc2)c(=O)n(-c2ccc(Br)cc2)c2nc(C(F)(F)F)ccc12 [Example 84]	28.2 nM	–	–
COc1ccc(-c2c(N)c3ccc(C(F)(F)F)nc3n(-c3ccc(Br)cc3)c2=O)nc1 [Example 85]	15.2 nM	–	–
Nc1c(-c2ccc3c(c2)OCO3)c(=O)n(-c2ccc(Br)cc2)c2nc(C(F)(F)F)ccc12 [Example 86]	15.9 nM	–	–
COc1cc(-c2c(N)c3ccc(C(F)(F)F)nc3n(-c3ccc(C)cc3)c2=O)ccn1 [Example 87]	15.4 nM	9.77 nM	–
Cc1ccc(-n2c(=O)c(-c3ccc4c(c3)OCCO4)c(N)c3ccc(C(F)(F)F)nc32)cc1 [Example 88]	16 nM	–	–
Cc1ccc(-n2c(=O)c(-c3ccc4nn(C)cc4c3)c(N)c3ccc(C(F)(F)F)nc32)cc1 [Example 89]	16.5 nM	–	–
Cc1ccc(-n2c(=O)c(-c3ccn4ncnc4c3)c(N)c3ccc(C(F)(F)F)nc32)cc1 [Example 90]	16.9 nM	–	–
Cc1ccc(-n2c(=O)c(-c3ccnc(C)c3)c(N)c3ccc(C(F)(F)F)nc32)cc1 [Example 91]	18 nM	–	–
Cn1cc2cc(-c3c(N)c4ccc(C(F)(F)F)nc4n(-c4ccc(Br)cc4)c3=O)ccc2n1 [Example 92]	17.4 nM	–	–
COc1ccc(-c2c(N)c3ccc(C(F)(F)F)nc3n(-c3ccc(Br)cc3)c2=O)cn1 [Example 93]	16.3 nM	–	–
